# Columns and labels:
# ALK5 [1] = biological target: T1, ALK5 (Homo sapiens, UniProt P36897); assay: FSBA covalent modification and protection by competitors, followed by LC/MS; assay type: binding; conditions: for Mass Peak (relative percentage), FSBA-modified ALK5 peak: peak 35,405 Da; for Mass Peak (relative percentage), unmodified ALK5 peak: peak 34,972 Da
# T1 construct: recombinantly expressed and purified kinase domain of the transforming growth factor (TGF)-β type I receptor; made in house; host or cells: baculovirus expression system
# T1 sequence (P36897 205-495 limits assumed): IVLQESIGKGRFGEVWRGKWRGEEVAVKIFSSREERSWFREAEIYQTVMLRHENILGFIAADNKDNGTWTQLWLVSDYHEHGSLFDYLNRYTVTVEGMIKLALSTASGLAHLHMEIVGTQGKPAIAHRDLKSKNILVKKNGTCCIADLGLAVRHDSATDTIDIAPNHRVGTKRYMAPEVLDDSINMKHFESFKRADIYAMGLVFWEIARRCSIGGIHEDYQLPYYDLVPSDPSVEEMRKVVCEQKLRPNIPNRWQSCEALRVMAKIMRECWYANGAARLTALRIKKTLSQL
# ALK4 = biological target: T2, ALK4 (Homo sapiens, UniProt P36896); assay: FSBA covalent modification and protection by competitors, followed by LC/MS; assay type: binding; conditions: for Mass Peak (relative percentage), unmodified ALK4 peak: peak 35,025 Da; for Mass Peak (relative percentage), FSBA-modified ALK4 peak: peak 35,459 Da
# T2 sequence (P36896 24-505): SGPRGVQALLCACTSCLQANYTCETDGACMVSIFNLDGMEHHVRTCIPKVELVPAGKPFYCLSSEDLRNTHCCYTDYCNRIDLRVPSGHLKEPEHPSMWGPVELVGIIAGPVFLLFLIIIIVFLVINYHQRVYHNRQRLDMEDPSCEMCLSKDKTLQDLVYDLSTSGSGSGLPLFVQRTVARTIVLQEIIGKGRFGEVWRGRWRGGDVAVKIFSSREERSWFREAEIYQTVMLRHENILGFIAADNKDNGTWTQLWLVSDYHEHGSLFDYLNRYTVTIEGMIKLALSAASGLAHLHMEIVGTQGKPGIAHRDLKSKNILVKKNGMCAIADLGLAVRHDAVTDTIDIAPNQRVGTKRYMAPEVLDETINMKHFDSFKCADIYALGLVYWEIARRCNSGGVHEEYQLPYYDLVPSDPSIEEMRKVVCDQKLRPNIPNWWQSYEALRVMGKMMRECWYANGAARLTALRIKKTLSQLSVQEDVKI
# [2] = test system: proteins in HeLa cell lysate; assay: Profiling kinases from complex proteome with biotin-FSBA, Western blot; assay type: binding
# ALK5 [3] = biological target: T1, ALK5; assay: Biotin-FSBA binding and competition detected by Western blot (avidin-HRP); conditions: biotin-FSBA 20 μM
# [4] = biological target: T3, ALK5 (kinase domain of the TGF-β type I receptor) (Homo sapiens, UniProt P36897); assay: ^14C-FSBA affinity labeling detected by autoradiography; assay type: binding; conditions: ˜20 μM ^14C-FSBA, 1 hour
# T3 construct: recombinantly expressed and purified kinase domain of the transforming growth factor (TGF)-β type I receptor; made in house; host or cells: baculovirus expression system
# T3 sequence (P36897 205-495 limits assumed): T1 sequence (P36897 205-495 limits assumed)
# CDK2 = CDK2 (Homo sapiens, UniProt P24941); assay: FSBA covalent modification and protection by competitors, followed by LC/MS; assay type: binding; conditions: for Mass Peak (relative percentage), unmodified CDK2 peak: peak 33,971 Da; for Mass Peak (relative percentage), FSBA-modified CDK2 peak: peak 34,404 Da
structure (smiles),measurement,setting,value
C[C@@H](N)[C@H]1CC[C@H](C(=O)Nc2ccncc2)CC1 [Y-27632],Effect on FSBA binding to ALK5,"ALK5 [1]; 5 μg ALK5, FSBA 40 μM, about 2 hours, LC/MS",had no effect on FSBA binding to ALK5
same,Effect on FSBA labeling of ALK5,"ALK5 [1]; 10 μg ALK5, 10 μM FSBA, 3 hours at room temperature, LC/MS",did not inhibit FSBA labeling of ALK5
same,Effect on FSBA labeling of ROCK1,human ROCK1 (hROCK1),abrogated FSBA labeling of ROCK1
same,Inhibition of FSBA labeling of hROCK1,human ROCK1 (hROCK1),inhibits hROCK1 at a 1:1 ratio
same,Mode of action on hROCK1,human ROCK1 (hROCK1),competitive inhibitor of hROCK1
CN[C@@H]1C[C@H]2O[C@@](C)([C@@H]1OC)n1c3ccccc3c3c4c(c5c6ccccc6n2c5c31)C(=O)NC4 [staurosporine],Effect of staurosporine on FSBA binding to ALK5,ALK5 [1],essentially blocked
same,Effect of staurosporine on FSBA binding to ALK4,ALK4,essentially blocked
same,Effect on biotin-FSBA band intensity in HeLa cell lysate,"[2]; 80 μg lysate, 500 μM staurosporin 2 hours, then biotin-FSBA 20 μM 4 hours, Western blot (Example 12)",reduced intensity in selective bands
same,Effect on biotin-FSBA band intensity in HeLa cell lysate,"[2]; staurosporin 500 μM 2 hours, then biotin-FSBA 4 hours, Western blot (Example 11)",dramatic decrease in band intensity for selected bands
Nc1ncnc2c1ncn2[C@@H]1O[C@H](COP(=O)(O)OP(=O)(O)OP(=O)(O)O)[C@@H](O)[C@H]1O [ATP],"Mass Peak (relative percentage), FSBA-modified ALK5 peak",ALK5 [1]; FSBA 10 μM plus ATP 50 μM,"35,405 Da (100%)"
same,"Mass Peak (relative percentage), unmodified ALK5 peak",ALK5 [1]; FSBA 10 μM plus ATP 100 μM,"34,972 Da (30%)"
same,"Mass Peak (relative percentage), FSBA-modified ALK5 peak",ALK5 [1]; FSBA 10 μM plus ATP 100 μM,"35,405 Da (70%),"
same,"Mass Peak (relative percentage), unmodified ALK5 peak",ALK5 [1]; FSBA 10 μM plus ATP 500 μM,"34,972 Da (100%)"
same,ATP concentration at which most of the covalent modification of ALK5 by FSBA was inhibited,"ALK5 [1]; FSBA 10 μM, LC/MS",0.5 mM
same,"Mass Peak (relative percentage), unmodified ALK4 peak",ALK4; FSBA 10 μM plus ATP 50 μM,"35,025 Da (5%)"
same,"Mass Peak (relative percentage), FSBA-modified ALK4 peak",ALK4; FSBA 10 μM plus ATP 50 μM,"35,459 Da (95%),"
same,"Mass Peak (relative percentage), unmodified ALK4 peak",ALK4; FSBA 10 μM plus ATP 100 μM,"35,025 Da (30%)"
same,"Mass Peak (relative percentage), FSBA-modified ALK4 peak",ALK4; FSBA 10 μM plus ATP 100 μM,"35,459 Da (70%),"
same,"Mass Peak (relative percentage), unmodified ALK4 peak",ALK4; FSBA 10 μM plus ATP 500 μM,"35,025 Da (100%)"
same,ATP concentration at which most of the covalent modification of ALK4 by FSBA was inhibited,"ALK4; FSBA 10 μM, LC/MS",0.5 mM
same,ATP concentration at which biotin-FSBA/ALK5 bands were no longer visible,ALK5 [3],≥ 1.0 mM
same,Effect of ATP on ^14C-FSBA labeling of ALK5 by autoradiography,[4]; 1 mM ATP,most of the labeling was blocked
same,Effect of ATP on ^14C-FSBA labeling of ALK5 by autoradiography,[4]; 10 mM ATP,autoradiograph did not detect ^14C-FSBA binding
same,"Mass Peak (relative percentage), unmodified CDK2 peak",CDK2; FSBA 10 μM plus ATP 1 mM,"33,971 Da (20%)"
same,"Mass Peak (relative percentage), FSBA-modified CDK2 peak",CDK2; FSBA 10 μM plus ATP 1 mM,"34,404 Da (80%),"
same,"Mass Peak (relative percentage), unmodified CDK2 peak",CDK2; FSBA 10 μM plus ATP 5 mM,"33,971 Da (90%)"
same,"Mass Peak (relative percentage), FSBA-modified CDK2 peak",CDK2; FSBA 10 μM plus ATP 5 mM,"34,404 Da (10%),"
same,"Mass Peak (relative percentage), unmodified CDK2 peak",CDK2; FSBA 10 μM plus ATP 10 mM,"33,971 Da (100%)"
same,ATP concentration necessary to block FSBA binding to CDK2,"CDK2; FSBA 10 μM, LC/MS",5 mM

# Reference: patent US20060234327A1, “Methods for identifying enzyme inhibitors and protein kinases” (priority 2003, published 2006)
